In the supplement of paper PMC5412046:

What was measured:
SB.msgc-1 [1] = experiment: viability at highest tested concentration (MAXR) relative to DMSO; higher = less cytotoxic; conditions: SB.msgc-1 (sporadic gastric cancer)
Procedure, shortened: (§1)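 In 1536-well plates, each well held 500 gastric cancer cells of hereditary or sporadic patient origin in 5 μL medium. Compound in DMSO (23 nL, pintool) was added at 11 concentrations spaced threefold apart, and the top concentration was noted per compound. Luminescence was read on a ViewLux after a 48 h incubation and a 30 min room-temperature treatment with CellTiter-Glo. Figures give viability normalised to DMSO, either at the highest concentration or as trapezoidal area under the curve.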

SB.mhdgc-1 [2] = experiment: as above; conditions: SB.mhdgc-1 (hereditary c.1380delA CDH1 gastric cancer)
Procedure, shortened: as §1

SB.msgc-1 [3] = experiment: area under the dose-response curve of % viability (trapezoidal, 11 doses) (% viability x log10 concentration); higher = less cytotoxic; conditions: SB.msgc-1 (sporadic gastric cancer)
Procedure, shortened: as §1

SB.mhdgc-1 [4] = experiment: as above; conditions: SB.mhdgc-1 (hereditary c.1380delA CDH1 gastric cancer)
Procedure, shortened: as §1

## CC(C)(Cc1ccc2ccccc2c1)NC[C@@H](O)COc1cccc(Cl)c1C#N (top concentration 46.0829 µM)
SB.msgc-1 [1]
  viability: 105%
SB.mhdgc-1 [2]
  viability: 47.5%
SB.msgc-1 [3]
  area under the dose-response curve: 585
SB.mhdgc-1 [4]
  area under the dose-response curve: 484

## CC(C)(O)Cn1c(NC(=O)c2ccc(-c3cn[nH]c3)s2)nc2cc(CN3CCOCC3)ccc21 (top concentration 46.0829 µM)
SB.msgc-1 [1]
  viability: 23.5%
SB.mhdgc-1 [2]
  viability: 7.07%
SB.msgc-1 [3]
  area under the dose-response curve: 455
SB.mhdgc-1 [4]
  area under the dose-response curve: 366

## CC(=O)Nc1ccc([C@H](C)C(=O)Nc2ncc(C(C)C)s2)cc1 (top concentration 46.0829 µM)
SB.msgc-1 [1]
  viability: 45.1%
SB.mhdgc-1 [2]
  viability: 51.4%
SB.msgc-1 [3]
  area under the dose-response curve: 425
SB.mhdgc-1 [4]
  area under the dose-response curve: 340

## CC(C)C1=N[N](C\2=C1C(=O)N\C(=N2)CC3=CC=C(OCCO)C=C3)C4=C(Cl)C=CC=C4Cl (top concentration 46.0829 µM)
SB.msgc-1 [1]
  viability: 24.2%
SB.mhdgc-1 [2]
  viability: 21.9%
SB.msgc-1 [3]
  area under the dose-response curve: 353
SB.mhdgc-1 [4]
  area under the dose-response curve: 274

## CC/1=C(/C(CC(=O)N1)C2=CC=C(C=C2)C(F)(F)F)C(=O)NC3=C(F)C=C4[NH]N=CC4=C3 (configuration not stated) (top concentration 46.0829 µM)
SB.msgc-1 [1]
  viability: 78.2%
SB.mhdgc-1 [2]
  viability: 67.9%
SB.msgc-1 [3]
  area under the dose-response curve: 539
SB.mhdgc-1 [4]
  area under the dose-response curve: 407

## CC1(C)OC/2=C(\[C@H](NCC3=CC=CC=C3)[C@@H]1O)C(=O)C4=CC=CC=C4C2=O (top concentration 46.0829 µM)
SB.msgc-1 [1]
  viability: 1.97%
SB.mhdgc-1 [2]
  viability: 4.38%
SB.msgc-1 [3]
  area under the dose-response curve: 348
SB.mhdgc-1 [4]
  area under the dose-response curve: 419

## Cc1c(C(=O)Nc2cccc(C(F)(F)F)c2)cc(-c2ccccc2)n1CCCN1CCOCC1 (top concentration 46.0829 µM)
SB.msgc-1 [1]
  viability: 30.5%
SB.mhdgc-1 [2]
  viability: 3.83%
SB.msgc-1 [3]
  area under the dose-response curve: 478
SB.mhdgc-1 [4]
  area under the dose-response curve: 516

## Cc1cccc2c1CC[C@H](CN1CCC(c3c(Cl)cccc3Cl)CC1)C[C@@H]2O (top concentration 46.0829 µM)
SB.msgc-1 [1]
  viability: 52%
SB.mhdgc-1 [2]
  viability: 23.2%
SB.msgc-1 [3]
  area under the dose-response curve: 506
SB.mhdgc-1 [4]
  area under the dose-response curve: 506

## Cc1ccc(C(C)(O)c2nc3ccccc3s2)c(C)c1 (configuration not stated) (top concentration 46.0829 µM)
SB.msgc-1 [1]
  viability: 104%
SB.mhdgc-1 [2]
  viability: 55.3%
SB.msgc-1 [3]
  area under the dose-response curve: 524
SB.mhdgc-1 [4]
  area under the dose-response curve: 527

## Cc1cccc(Nc2nc(-c3ccncc3)cs2)c1 (top concentration 46.0829 µM)
SB.msgc-1 [1]
  viability: 55.6%
SB.mhdgc-1 [2]
  viability: 40.5%
SB.msgc-1 [3]
  area under the dose-response curve: 503
SB.mhdgc-1 [4]
  area under the dose-response curve: 477

## Cc1ccnc(N[S+](=O)([O-])c2ccc(NC(=O)Nc3ccc([S+](=O)([O-])Nc4nccc(C)n4)cc3)cc2)n1 (top concentration 46.0829 µM)
SB.msgc-1 [1]
  viability: 40.7%
SB.mhdgc-1 [2]
  viability: 93.5%
SB.msgc-1 [3]
  area under the dose-response curve: 425
SB.mhdgc-1 [4]
  area under the dose-response curve: 535

## Cc1c(Cn2c(C)nc3c(C(=O)O)cc(N4CCOCC4)cc32)cccc1C(F)(F)F (top concentration 46.0829 µM)
SB.msgc-1 [1]
  viability: 54.2%
SB.mhdgc-1 [2]
  viability: 43.2%
SB.msgc-1 [3]
  area under the dose-response curve: 424
SB.mhdgc-1 [4]
  area under the dose-response curve: 362

## CCNC(=O)C[C@H]1/N=C(/C2=CC=C(Cl)C=C2)C3=CC(=CC=C3[N]4C(=NN=C14)C)OC (top concentration 46.0829 µM)
SB.msgc-1 [1]
  viability: 25.9%
SB.mhdgc-1 [2]
  viability: 36%
SB.msgc-1 [3]
  area under the dose-response curve: 439
SB.mhdgc-1 [4]
  area under the dose-response curve: 476

## CCNC(=O)Nc1ccc(Oc2ncnc(N)c2/C=N/OC)cc1Cl (top concentration 46.0829 µM)
SB.msgc-1 [1]
  viability: 53.8%
SB.mhdgc-1 [2]
  viability: 83%
SB.msgc-1 [3]
  area under the dose-response curve: 481
SB.mhdgc-1 [4]
  area under the dose-response curve: 534

## CCOc1cc(/C=C2/C(=O)N(c3ccccc3)N=C2C)cc(Cl)c1OCC(=O)OC (top concentration 46.0829 µM)
SB.msgc-1 [1]
  viability: 78.5%
SB.mhdgc-1 [2]
  viability: 42.6%
SB.msgc-1 [3]
  area under the dose-response curve: 492
SB.mhdgc-1 [4]
  area under the dose-response curve: 378

## CCn1c(C(=O)N(C2CC2)C2CC2)cc2c3c(ncn3C)c(Nc3cc(C)n(C)n3)nc21 (top concentration 46.0829 µM)
SB.msgc-1 [1]
  viability: 91.1%
SB.mhdgc-1 [2]
  viability: 91.1%
SB.msgc-1 [3]
  area under the dose-response curve: 512
SB.mhdgc-1 [4]
  area under the dose-response curve: 503

## CCn1c(-c2nonc2N)nc2cncc(CNC3CCNCC3)c21 (top concentration 46.0829 µM)
SB.msgc-1 [1]
  viability: 93.4%
SB.mhdgc-1 [2]
  viability: 65.3%
SB.msgc-1 [3]
  area under the dose-response curve: 534
SB.mhdgc-1 [4]
  area under the dose-response curve: 484

## CN(C)CC(=O)N1CCC(CC1)C2=CC=C(NC(=O)C3=NC(=C[NH]3)C#N)C(=C2)\C4=C\CCCC4 (top concentration 46.0829 µM)
SB.msgc-1 [1]
  viability: 35.1%
SB.mhdgc-1 [2]
  viability: 47.5%
SB.msgc-1 [3]
  area under the dose-response curve: 448
SB.mhdgc-1 [4]
  area under the dose-response curve: 486

## CN(C)CCN(C)C(=O)c1ccc(NC(=O)Nc2ccc(-c3nc(N4CCOCC4)c4ccn(CC(F)(F)F)c4n3)cc2)cc1 (top concentration 46.0829 µM)
SB.msgc-1 [1]
  viability: 4.2%
SB.mhdgc-1 [2]
  viability: 2.92%
SB.msgc-1 [3]
  area under the dose-response curve: 332
SB.mhdgc-1 [4]
  area under the dose-response curve: 162

## Cc1nc(Nc2n[nH]c3c2CN(C(=O)N[C@H](CN(C)C)c2ccccc2)C3(C)C)c2sccc2n1 (top concentration 46.0829 µM)
SB.msgc-1 [1]
  viability: 33.7%
SB.mhdgc-1 [2]
  viability: 35.4%
SB.msgc-1 [3]
  area under the dose-response curve: 284
SB.mhdgc-1 [4]
  area under the dose-response curve: 310

## CN(C1CCc2c(c3ccccc3n2CC(=O)O)C1)[S+](=O)([O-])c1ccc(F)cc1 (configuration not stated) (top concentration 46.0829 µM)
SB.msgc-1 [1]
  viability: 35.8%
SB.mhdgc-1 [2]
  viability: 41.3%
SB.msgc-1 [3]
  area under the dose-response curve: 568
SB.mhdgc-1 [4]
  area under the dose-response curve: 475

## CN1C(=O)C(=C\C2=C1N=C(NC3=CC=CC(=C3)C(O)=O)N=C2)/C4=C(Cl)C=CC=C4Cl (top concentration 46.0829 µM)
SB.msgc-1 [1]
  viability: 44.5%
SB.mhdgc-1 [2]
  viability: 59.3%
SB.msgc-1 [3]
  area under the dose-response curve: 407
SB.mhdgc-1 [4]
  area under the dose-response curve: 518

## CN1CCC(CC1)COC2=CN=C(N=C2)C3=CC(=CC=C3)CN4/N=C(\C=C/C4=O)C5=CC(=CC=C5)C#N (top concentration 46.0829 µM)
SB.msgc-1 [1]
  viability: 41%
SB.mhdgc-1 [2]
  viability: 4.88%
SB.msgc-1 [3]
  area under the dose-response curve: 325
SB.mhdgc-1 [4]
  area under the dose-response curve: 347

## CN1CCN(c2cccc(Nc3nc4c(-c5ccc([S+](C)(=O)[O-])cc5)cccn4n3)c2)CC1 (top concentration 46.0829 µM)
SB.msgc-1 [1]
  viability: 68%
SB.mhdgc-1 [2]
  viability: 71.6%
SB.msgc-1 [3]
  area under the dose-response curve: 494
SB.mhdgc-1 [4]
  area under the dose-response curve: 450

## COc1cc(Oc2ccnc3cc(OC)c(OC)cc23)ccc1NC(=O)NC(C)c1nccs1 (configuration not stated) (top concentration 46.0829 µM)
SB.msgc-1 [1]
  viability: 64.4%
SB.mhdgc-1 [2]
  viability: 8.29%
SB.msgc-1 [3]
  area under the dose-response curve: 504
SB.mhdgc-1 [4]
  area under the dose-response curve: 480

## COc1cc2nc(-c3cc(F)ccc3O)nc(N[C@@H]3CNC[C@H]3C(C)(C)O)c2cc1OC (top concentration 46.0829 µM)
SB.msgc-1 [1]
  viability: 24.8%
SB.mhdgc-1 [2]
  viability: 3.32%
SB.msgc-1 [3]
  area under the dose-response curve: 469
SB.mhdgc-1 [4]
  area under the dose-response curve: 384

## COc1ccc(Cc2ccc(NC(N)=O)cc2)cc1-c1cccc(Cl)c1 (top concentration 46.0829 µM)
SB.msgc-1 [1]
  viability: 81.3%
SB.mhdgc-1 [2]
  viability: 84.8%
SB.msgc-1 [3]
  area under the dose-response curve: 579
SB.mhdgc-1 [4]
  area under the dose-response curve: 492

## COc1ccc(Cn2ccc3ccc(C(=O)NO)cc32)cc1 (top concentration 46.0829 µM)
SB.msgc-1 [1]
  viability: 78.3%
SB.mhdgc-1 [2]
  viability: 101%
SB.msgc-1 [3]
  area under the dose-response curve: 493
SB.mhdgc-1 [4]
  area under the dose-response curve: 559

## COC1=CC=CC(=C1N)\C2=C\C(=O)C3=C(O2)C=CC=C3 (top concentration 46.0829 µM)
SB.msgc-1 [1]
  viability: 59.1%
SB.mhdgc-1 [2]
  viability: 42%
SB.msgc-1 [3]
  area under the dose-response curve: 495
SB.mhdgc-1 [4]
  area under the dose-response curve: 432

## COc1nccc(-c2c(-c3ccc(F)cc3)ncn2C2CCNCC2)n1 (top concentration 46.0829 µM)
SB.msgc-1 [1]
  viability: 83.4%
SB.mhdgc-1 [2]
  viability: 68.6%
SB.msgc-1 [3]
  area under the dose-response curve: 553
SB.mhdgc-1 [4]
  area under the dose-response curve: 544

## CSC1=CC(=CC=C1)NC2=NC3=C(C=N2)/C=C(C(=O)N3C)/C4=C(Cl)C=CC=C4Cl (top concentration 46.0829 µM)
SB.msgc-1 [1]
  viability: 42.9%
SB.mhdgc-1 [2]
  viability: 53.5%
SB.msgc-1 [3]
  area under the dose-response curve: 399
SB.mhdgc-1 [4]
  area under the dose-response curve: 490

## C[C@H](NCc1ccc2c(c1)nc(NC(=O)c1ccc(-c3cn[nH]c3)s1)n2CCc1ccccc1)C(C)(C)C (top concentration 46.0829 µM)
SB.msgc-1 [1]
  viability: 1.8%
SB.mhdgc-1 [2]
  viability: 2.84%
SB.msgc-1 [3]
  area under the dose-response curve: 400
SB.mhdgc-1 [4]
  area under the dose-response curve: 350

## Cn1cc(-c2ccc3nnc(C(F)(F)c4ccc5ncccc5c4)n3n2)cn1 (top concentration 46.0829 µM)
SB.msgc-1 [1]
  viability: 96.1%
SB.mhdgc-1 [2]
  viability: 114%
SB.msgc-1 [3]
  area under the dose-response curve: 508
SB.mhdgc-1 [4]
  area under the dose-response curve: 589

## O=C(NCc1ccncc1)C12C[C@H]3C[C@@H](C1)CC(c1ccc(Cl)cc1)(C3)C2 (top concentration 46.0829 µM)
SB.msgc-1 [1]
  viability: 41.1%
SB.mhdgc-1 [2]
  viability: 41.2%
SB.msgc-1 [3]
  area under the dose-response curve: 469
SB.mhdgc-1 [4]
  area under the dose-response curve: 472

## N#C/C(=C1/Nc2ccccc2S1)c1ccnc(OCc2ccc(CN3CCOCC3)cc2)n1 (top concentration 46.0829 µM)
SB.msgc-1 [1]
  viability: 12.5%
SB.mhdgc-1 [2]
  viability: 5.64%
SB.msgc-1 [3]
  area under the dose-response curve: 312
SB.mhdgc-1 [4]
  area under the dose-response curve: 267

## O=C(C1CC1)N1CC[C@@H](Cn2c(-c3ccc(-c4ccc5occc5c4)cc3)nc3cnccc32)C1 (top concentration 46.0829 µM)
SB.msgc-1 [1]
  viability: 54.8%
SB.mhdgc-1 [2]
  viability: 63.9%
SB.msgc-1 [3]
  area under the dose-response curve: 508
SB.mhdgc-1 [4]
  area under the dose-response curve: 536

## Oc1cc(-c2nc(-c3ccccc3)[nH]c2-c2ccncc2)ccc1Cl (top concentration 46.0829 µM)
SB.msgc-1 [1]
  viability: 70.2%
SB.mhdgc-1 [2]
  viability: 19%
SB.msgc-1 [3]
  area under the dose-response curve: 488
SB.mhdgc-1 [4]
  area under the dose-response curve: 384

## OC[C@H]1O[C@H]([C@@H](F)[C@@H]1O)N2\C=C/C(=O)NC2=O (top concentration 46.0829 µM)
SB.msgc-1 [1]
  viability: 38.1%
SB.mhdgc-1 [2]
  viability: 46.4%
SB.msgc-1 [3]
  area under the dose-response curve: 451
SB.mhdgc-1 [4]
  area under the dose-response curve: 538
